Assay results taken from patent US20110195845A1, “Constructs for Expressing Herbicide Tolerance Genes, Related Plants, and Related Trait Combinations” (Dow AgroSciences LLC, priority 2008, published 2011).

Columns and labels:
[1] = test system: E. coli BL21-Star (DE3); experiment: Bacterial strain response to glufosinate on minimal media; assay type: cell-based, Escherichia coli; parameters: key to bacterial growth on minimal media: +++ = Heavy Lawn Growth; ++ = Light lawn growth; + = patchy lawn growth; −− = No Growth; settings: for bacterial growth on minimal media: 24 hrs @ 37 C
Experimental: Selected cell lines of Escherichia coli and Agrobacterium tumefaciens were inoculated on minimal media containing incrementally increasing concentrations of Glufosinate (BASTA). The cell lines; BL21-Star (DE3), Top10, DH5α, Agrobacterium tumefaciens C58, and Agrobacterium tumefaciens LBA4404s were initially grown up on complex media. The Escherichia coli strains were grown in LB and the Agrobacterium tumefaciens strains were grown in YEP. Five microliters of bacterial culture was inoculated and dispersed evenly onto minimal media plates containing various concentrations of glufosinate. The concentrations consisted of 0 μg/ml, 250 μg/ml, 500 μg/ml, 1000 μg/ml, 2000 μg/ml, and 4000 μg/ml of BASTA. In addition, the bacterial strains were inoculated onto a plate of complex media as a control—Agrobacterium tumefaciens strains were inoculated on YEP agar plates, and Escherichia coli strains were inoculated on LB agar plates. The plates containing the Escherichia coli strains were incubated at 37° C. for 24 hours. The plates containing the Agrobacterium tumefaciens strains were incubate at 25° C. for 48 hours. […] Table 7 illustrates the capability of the various strains to grow on minimal media containing glufosinate.

[2] = test system: PAT gene + AAD-12 transformed T1 Arabidopsis; experiment: T1 Arabidopsis response to glufosinate applied postemergence; assay type: in vivo, Arabidopsis thaliana; settings: 2 WAT
Experimental: (§1) Seven days after planting (DAP) and again 11 DAP, T1 plants (cotyledon and 2-4-1f stage, respectively) were sprayed with a 0.016% solution of 2,4-D herbicide (456 g ae/L 2,4-D Amine 4, Dow AgroSciences LLC, Indianapolis, Ind.) at a spray volume of 10 ml/tray (703 L/ha) using a DeVilbiss compressed air spray tip to deliver an effective rate of 50 g ae/ha 2,4-D DMA per application. Survivors (plants actively growing) were identified 4-7 days after the final spraying and transplanted individually into 3-inch pots prepared with potting media (Metro Mix 360). Transplanted plants were covered with humidity domes for 3-4 days and placed in a 22° C. growth chamber as before or moved to directly to the greenhouse. Domes were subsequently removed and plants reared in the greenhouse (22±5° C., 50±30% RH, 14 h light:10 dark, minimum 500 μE/m^2s^1 natural+supplemental light) at least 1 day prior to testing for the ability of DSM-2 (v2) to provide glufosinate herbicide resistance.
(§2) T1 plants were then randomly assigned to various rates of glufosinate. For Arabidopsis 140 g ai/ha glufosinate is an effective dose to distinguish sensitive plants from ones with meaningful levels of resistance. Elevated rates were also applied to determine relative levels of resistance (280, 560, or 1120 g ai/ha).
(§3) All glufosinate herbicide applications were applied by track sprayer in a 187 L/ha spray volume. The commercial Liberty™ formulation (200 g ai/L, Bayer Crop Science, Research Triangle Park, N.C.).
(§4) The first Arabidopsis transformations were conducted using DSM-2 (v2) (plant optimized gene). T1 transformants were first selected from the background of untransformed seed using a 2,4-D DMA selection scheme. Over 100,000 T1 seed were screened and 260 2,4-D resistant plants (AAD-12 gene) were identified, equating to a transformation/selection frequency of 0.26% which is slightly higher than the normal range of selection frequency of constructs where AAD-12+2,4-D are used for selection. T1 plants selected above were subsequently transplanted to individual pots and sprayed with various rates of commercial glufosinate herbicide. Table 10 compares the response of DSM-2 (v2) and control genes to impart glufosinate resistance to Arabidopsis T1 transformants. Response is presented in terms of % visual injury 2 WAT. […] Since each T1 is an independent transformation event, one can expect significant variation of individual T1 responses within a given rate. An arithmetic mean and standard deviation is presented for each treatment. Untransformed-wildtype Arabidopsis served as a glufosinate sensitive control. The DSM-2 (v2) gene imparted herbicide resistance to individual T1 Arabidopsis plants. Within a given treatment, the level of plant response varied greatly and can be attributed to the fact each plant represents an independent transformation event. Of important note, at above 140 g ai/ha glufosinate, there were individuals that were unaffected while some were severely affected.

[3] = test system: DSM-2 (v2) gene + AAD-12 transformed T1 Arabidopsis; experiment: as above; assay type: in vivo, Arabidopsis thaliana; settings: for % Injury Ave / individuals with % Injury 20-40% / individuals with % Injury <20% / individuals with % Injury >40%: 2 WAT
Experimental: as §1, §2, §3, §4

[4] = test system: Escherichia coli BL21-Star (DE3) with CsVMV promoter//DSM-2 (3264); experiment: Viral promoter driven complementation on glufosinate, plasmid 3264; assay type: cell-based; settings: for bacterial growth on minimal media: 48 hrs @37 C; on bacterial growth on minimal media: key: ++++ = Heavy Lawn Growth; +++ = Lawn Growth; ++ = Lots of Distinct Colonies; + = Scattered Colony Growth
Experimental: Plasmid constructs in which the DSM-2 (v2) and PAT gene coding sequences were expressed, under either the viral promoters CsVMV or the plant promoter AtUbi10, were assayed for complementation on minimal media containing glufosinate. The plasmids 3778 (Rb7 MARv3//AtUbi10 promoter//DSM-2 (v2)//Atu Orf 1 3′UTR), 3779 (Rb7 MARv3//AtUbi10 promoter//PAT//Atu Orf 1 3′UTR), 3264 (CsVMV promoter//DSM-2//Atu Orf 24 3′UTR), 3037 (CsVMV promoter//PAT//Atu Orf 25/26 3′UTR), and 770 (control plasmid containing CsVMV promoter//GUS v3//Atu Orf 24 3′UTR) were transformed into Escherichia coli BL21-Star (DE3) and grown up in complex media. Five microliters of the cultures were plated on minimal media containing increasing concentrations of Glufosinate and incubated at 37° C. for 48 hours.

[5] = 140 g ai/ha glufosinate postemergence
[6] = 280 g ai/ha glufosinate postemergence
[7] = 560 g ai/ha glufosinate postemergence
[8] = 1120 g ai/ha glufosinate postemergence

CP(=O)(O)CCC(N)C(=O)O (stereo not shown) [glufosinate]
bacterial growth on minimal media ([1]; 250 μg/ml BASTA): −−
bacterial growth on minimal media ([1]; 500 μg/ml BASTA): −−
bacterial growth on minimal media ([1]; 1000 μg/ml BASTA): −−
bacterial growth on minimal media ([1]; 2000 μg/ml BASTA): −−
bacterial growth on minimal media ([1]; 4000 μg/ml BASTA): −−
concentration in minimal media at which the cell line was inhibited ([1]; minimal media): 100 µg/mL
inhibition of strain by glufosinate ([1]; minimal media, 250-4000 μg/ml BASTA): substantially inhibited
% Injury Ave [2, 5]: 0.0%
individuals with % Injury 20-40% [2, 5]: 0
individuals with % Injury <20% [2, 5]: 10
individuals with % Injury >40% [2, 5]: 0
% Injury Ave [2, 6]: 0.0%
individuals with % Injury 20-40% [2, 6]: 0
individuals with % Injury <20% [2, 6]: 10
individuals with % Injury >40% [2, 6]: 0
% Injury Ave [2, 7]: 0.0%
individuals with % Injury 20-40% [2, 7]: 0
individuals with % Injury <20% [2, 7]: 10
individuals with % Injury >40% [2, 7]: 0
% Injury Ave [2, 8]: 3.0%
individuals with % Injury 20-40% [2, 8]: 0
individuals with % Injury <20% [2, 8]: 10
individuals with % Injury >40% [2, 8]: 0
% Injury Ave [3, 5]: 0.0%
individuals with % Injury 20-40% [3, 5]: 0
individuals with % Injury <20% [3, 5]: 20
individuals with % Injury >40% [3, 5]: 0
% Injury Ave [3, 6]: 3.0%
individuals with % Injury 20-40% [3, 6]: 1
individuals with % Injury <20% [3, 6]: 19
individuals with % Injury >40% [3, 6]: 0
% Injury Ave [3, 7]: 6.0%
individuals with % Injury 20-40% [3, 7]: 0
individuals with % Injury <20% [3, 7]: 19
individuals with % Injury >40% [3, 7]: 1
% Injury Ave [3, 8]: 13.0%
individuals with % Injury 20-40% [3, 8]: 1
individuals with % Injury <20% [3, 8]: 17
individuals with % Injury >40% [3, 8]: 2
injury of surviving individuals ([3]; 1,120 g ai/ha glufosinate, many individuals): little or no injury
bacterial growth on minimal media ([4]; 250 μg/ml BASTA): ++
bacterial growth on minimal media ([4]; 500 μg/ml BASTA): +
concentration in minimal media to which promoter-driven DSM-2 provided resistance ([4]; CsVMV promoter, minimal media): 200 µg/mL
